# From patent US5157041A, “Amino acid derivatives” (Hoffmann-La Roche Inc., priority 1988, dated 1992)
# Target: T1, HIV protease (Human immunodeficiency virus type 1 group M subtype B, UniProt P04585)
# T1 construct: HIV protease was expressed in E. coli; made in house; host or cells: E. coli
# Test: biochemical
# Conditions: partially purified HIV protease expressed in E. coli; substrate succinyl-Ser-Leu-Asn-Tyr-Pro-Ile isobutylamide; citrate buffer pH 5.5; 37° C.; read-out: I50 (concentration of test compound required to give 50% inhibition)
# Method: HIV protease was expressed in E. coli and partially purified from soluble extracts of the bacterium by ammonium sulphate fractionation (0-30%). Protease activity was assayed using the protected hexapeptide succinyl-Ser-Leu-Asn-Tyr-Pro-Ile isobutylamide as the substrate. Cleavage of the substrate was quantified by measuring the production of H-Pro-Ile isobutylamide by the spectrophotometric assay of N-terminal proline.
# 1.25 mM of substrate were dissolved in 125 mM of citrate buffer (pH 5.5) containing 0.125 mg/ml of Tween 20. 10 μl of a solution of various concentrations of the test compound (dissolved in methanol or […]) and 10 μl of protease were added to 80 μl of the above buffered substrate. Digestion was carried out at 37° C. for a fixed period of time and was terminated by the addition of 1 ml of colour reagent [30 μg/ml of isatin and 1.5 mg/ml of 2-(4-chlorobenzoyl)benzoicacid in 10% acetone in ethanol (vol./vol.)]. The solution was heated in a water bath and then the pigmented residues were re-dissolved in 1 ml of 1% pyrogallol in 33% water in acetone (wt./vol./vol.). The optical density of the solution was measured spectrophotometrically at 599 nm.
row,IC50,SMILES
1,85 nM,"CC(C)(C)NC(=O)C1Cc2ccccc2CN1C[C@@H](O)[C@H](Cc1ccccc1)NC(=O)[C@H](CC(N)=O)NC(=O)OCc1ccccc1 (mixture of isomers) [Compound I, 2-[3(S)-[[N-(benzyloxycarbonyl)-L-asparaginyl]amino]-2(R)-hydroxy-4-phenylbutyl]-N-tert.butyl-1,2,3,4-tetrahydro-3(R,S)-isoquinolinecarboxamide]"
2,750 nM,"CC[C@H](C)[C@H](NC(=O)[C@@H]1CCCN1CC(O)[C@H](Cc1ccccc1)NC(=O)[C@H](CC(N)=O)NC(=O)[C@H](CC(C)C)NC(=O)OCc1ccccc1)C(=O)NCC(C)C (mixture of isomers) [Compound E, N^2-[N-[3(S)-[[N-[N-(benzyloxycarbonyl)-L-leucyl]-L-asparaginyl]amino]-2(R and S)-hydroxy-4-phenylbutyl]-L-prolyl]-N^1-isobutyl-L-isoleucinamide]"
3,130 nM,"CC[C@H](C)[C@H](NC(=O)[C@@H]1CCCN1CC(O)[C@H](Cc1ccccc1)NC(=O)[C@H](CC(N)=O)NC(=O)OCc1ccccc1)C(=O)NCC(C)C (single isomer, unassigned) [Compound D]"
4,750 nM,"CC(C)CCNC(=O)[C@@H]1CCCN1CC(O)[C@H](Cc1ccccc1)NC(=O)[C@H](CC(N)=O)NC(=O)OCc1ccccc1 (single isomer, unassigned) [Compound F]"
5,80 nM,"CC(C)CNC(=O)[C@@H]1CCCN1CC(O)[C@H](Cc1ccccc1)NC(=O)[C@H](CC(N)=O)NC(=O)OCc1ccccc1 (single isomer, unassigned) [Compound G, N^2-[3(S)-[[N-(benzyloxycarbonyl)-L-asparaginyl]amino]-2(R or S)-hydroxy-4-phenylbutyl]-N^1-isobutyl-L-prolinamide]"
6,870 nM,"CC(C)(C)OC(=O)[C@@H]1CCCN1CC(=O)[C@H](Cc1ccccc1)NC(=O)[C@H](CC(N)=O)NC(=O)OCc1ccccc1 [Compound A, N-[N-[[N-(benzyloxycarbonyl)-L-asparaginyl]-L-phenylalanyl]methyl]-L-proline tert.butyl ester]"
7,10 nM,"CC(C)(C)OC(=O)[C@@H]1CCCN1C[C@@H](O)[C@H](Cc1ccccc1)NC(=O)[C@H](CC(N)=O)NC(=O)c1ccc2ccccc2c1 [Compound H, N-[2(R)-hydroxy-3(S)-[[N-(2-naphthoyl)-L-asparaginyl]amino]-4-phenylbutyl]-L-proline tert.butyl ester]"

# Same assay, conditions: read-out: I50 (concentration of test compound required to give 50% inhibition)
row,SMILES,IC50
1,"CC(C)(C)OC(=O)[C@@H]1CCCN1C[C@@H](O)[C@H](Cc1ccccc1)NC(=O)[C@H](CC(N)=O)NC(=O)OCc1ccccc1 [Compound B, N-[3(S)-[[N-(benzyloxycarbonyl)-L-asparaginyl]amino]-2(R)-hydroxy-4-phenylbutyl]-L-proline tert.butyl ester]",150 nM
2,"CC(C)(C)OC(=O)[C@@H]1CCCN1C[C@H](O)[C@H](Cc1ccccc1)NC(=O)[C@H](CC(N)=O)NC(=O)OCc1ccccc1 [Compound C, N-[3(S)-[[N-(benzyloxycarbonyl)-L-asparaginyl]amino]-2(S)-hydroxy-4-phenylbutyl]-L-proline tert.butyl ester]",300 nM
